According to patent US10420341B2, “Herbicidal phenylpyrimidines” (BASF SE, priority 2015, dated 2019):

Tests used:
POLCO = assay: greenhouse post-emergence herbicidal test; type: in vivo, Polygonum convolvulus; details: post-emergence method, scale from 0 to 100
From the text: (§1) The seeds of the test plants were sown separately for each species. For the post-emergence treatment, the test plants were first grown to a height of 3 to 15 cm, depending on the plant habit, and only then treated with the active ingredients which had been suspended or emulsified in water. For this purpose, the test plants were either sown directly and grown in the same containers, or they were first grown separately as seedlings and transplanted into the test containers a few days prior to treatment. Depending on the species, the plants were kept at 10-25° C. or 20-35° C., respectively. The test period extended over 2 to 4 weeks. During this time, the plants were tended, and their response to the individual treatments was evaluated. Evaluation was carried out using a scale from 0 to 100. 100 means no emergence of the plants, or complete destruction of at least the aerial moieties, and 0 means no damage, or normal course of growth. […] The plants used in the greenhouse experiments were of the following species: [table]

ECHCG [1] = assay: greenhouse pre-emergence herbicidal test; type: in vivo, Echinocloa crus-galli; details: pre-emergence method, application rate 500 g/ha, scale from 0 to 100
Outline: (§2)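 Greenhouse plants receive the aqueous active ingredient straight after sowing, before emergence. Response is scored from 0 (no damage) to 100 (no emergence or complete kill of aerial parts) over a 2-4 week period.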

ECHCG [2] = assay: greenhouse post-emergence herbicidal test; type: in vivo, Echinocloa crus-galli; details: post-emergence method, application rate 500 g/ha, scale from 0 to 100
Outline: (§3)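 Test plants were grown to 3–15 cm height, depending on habit, then sprayed post-emergence with active ingredient suspended or emulsified in water. Plants were kept at 10–25 °C or 20–35 °C by species for 2 to 4 weeks. Damage was scored 0–100, where 100 is complete destruction of aerial parts and 0 is normal growth.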

APESV = assay: greenhouse pre-emergence herbicidal test; type: in vivo, Apera spica-venti; details: pre-emergence method, scale from 0 to 100
Outline: as §2

AVEFA = assay: greenhouse post-emergence herbicidal test; type: in vivo, Avena fatua; details: post-emergence method, application rate 500 g/ha, scale from 0 to 100
Outline: as §3

ALOMY = assay: greenhouse post-emergence herbicidal test; type: in vivo, Alopercurus myosuroides; details: post-emergence method, scale from 0 to 100
Outline: as §3

AMARE = assay: greenhouse post-emergence herbicidal test; type: in vivo, Amaranthus retroflexus; details: post-emergence method, application rate 500 g/ha, scale from 0 to 100
From the text: as §1

ABUTH = assay: greenhouse post-emergence herbicidal test; type: in vivo, Abutilon theophrasti; details: post-emergence method, scale from 0 to 100
From the text: as §1

Row | Compound | herbicidal activity against POLCO (POLCO; application rate 500 g/ha) | herbicidal activity against ECHCG (ECHCG [1]) | herbicidal activity against ECHCG (ECHCG [2]) | herbicidal activity against APESV (APESV; application rate 500 g/ha) | also measured
1 | Cc1ccccc1-c1cnc(C(C)C)nc1C(=O)O [example 33] | good (A good herbicidal activity is given at values of at least 70) | very good (a very good herbicidal activity is given at values of at least 85) | good (A good herbicidal activity is given at values of at least 70) | very good (a very good herbicidal activity is given at values of at least 85) | –
2 | COc1ncc(-c2ccccc2Cl)c(C(=O)O)n1 [example 51] | very good (a very good herbicidal activity is given at values of at least 85) | very good (a very good herbicidal activity is given at values of at least 85) | good (A good herbicidal activity is given at values of at least 70) | very good (a very good herbicidal activity is given at values of at least 85) | herbicidal activity against AVEFA (AVEFA): good (A good herbicidal activity is given at values of at least 70)
3 | COC(=O)c1nc(OC)ncc1-c1ccccc1Cl [example 61] | very good (a very good herbicidal activity is given at values of at least 85) | very good (a very good herbicidal activity is given at values of at least 85) | good (A good herbicidal activity is given at values of at least 70) | very good (a very good herbicidal activity is given at values of at least 85) | herbicidal activity against ALOMY (ALOMY; application rate 500 g/ha): good (A good herbicidal activity is given at values of at least 70)
4 | CCOc1ncc(-c2ccccc2C)c(C(=O)O)n1 [example 67] | very good (a very good herbicidal activity is given at values of at least 85) | good (A good herbicidal activity is given at values of at least 70) | good (A good herbicidal activity is given at values of at least 70) | very good (a very good herbicidal activity is given at values of at least 85) | –
5 | CCOc1ncc(-c2cc(C)ccc2C)c(C(=O)O)n1 [example 68] | very good (a very good herbicidal activity is given at values of at least 85) | very good (a very good herbicidal activity is given at values of at least 85) | good (A good herbicidal activity is given at values of at least 70) | very good (a very good herbicidal activity is given at values of at least 85) | –
6 | O=C(O)c1nc(C2CC2)ncc1-c1cc(Cl)ccc1Cl [example 143] | very good (a very good herbicidal activity is given at values of at least 85) | very good (a very good herbicidal activity is given at values of at least 85) | good (A good herbicidal activity is given at values of at least 70) | very good (a very good herbicidal activity is given at values of at least 85) | –
7 | COc1ccc(Cl)c(-c2cnc(C3CC3)nc2C(=O)O)c1 [example 145] | very good (a very good herbicidal activity is given at values of at least 85) | very good (a very good herbicidal activity is given at values of at least 85) | very good (a very good herbicidal activity is given at values of at least 85) | very good (a very good herbicidal activity is given at values of at least 85) | –
8 | O=C(O)c1nc(C2CC2)ncc1-c1c(F)cc(Cl)cc1Cl [example 148] | – | – | – | – | herbicidal activity against POLCO (POLCO; application rate 250 g/ha): very good (a very good herbicidal activity is given at values of at least 85); herbicidal activity against ALOMY (ALOMY; application rate 250 g/ha): very good (a very good herbicidal activity is given at values of at least 85); herbicidal activity against APESV (APESV; application rate 250 g/ha): very good (a very good herbicidal activity is given at values of at least 85)
9 | Cc1ccc(-c2cnc(C3CC3)nc2C(=O)O)c(C)c1 [example 168] | very good (a very good herbicidal activity is given at values of at least 85) | very good (a very good herbicidal activity is given at values of at least 85) | – | very good (a very good herbicidal activity is given at values of at least 85) | herbicidal activity against ALOMY (ALOMY; application rate 500 g/ha): good (A good herbicidal activity is given at values of at least 70)
10 | O=C(O)c1nc(C2CC2)ncc1-c1ccccc1OC(F)F [example 181] | very good (a very good herbicidal activity is given at values of at least 85) | very good (a very good herbicidal activity is given at values of at least 85) | good (A good herbicidal activity is given at values of at least 70) | very good (a very good herbicidal activity is given at values of at least 85) | –
11 | COC(=O)c1nc(C2CC2)ncc1-c1cc(Cl)ccc1Cl [example 204] | very good (a very good herbicidal activity is given at values of at least 85) | – | – | very good (a very good herbicidal activity is given at values of at least 85) | herbicidal activity against AMARE (AMARE): very good (a very good herbicidal activity is given at values of at least 85)
12 | COC(=O)c1nc(C2CC2)ncc1-c1cccc(F)c1Cl [example 210] | very good (a very good herbicidal activity is given at values of at least 85) | very good (a very good herbicidal activity is given at values of at least 85) | very good (a very good herbicidal activity is given at values of at least 85) | very good (a very good herbicidal activity is given at values of at least 85) | –
13 | COC(=O)c1nc(C2CC2)ncc1-c1c(C)cccc1C [example 225] | very good (a very good herbicidal activity is given at values of at least 85) | very good (a very good herbicidal activity is given at values of at least 85) | good (A good herbicidal activity is given at values of at least 70) | very good (a very good herbicidal activity is given at values of at least 85) | –
14 | COC(=O)c1nc(C2CCC2)ncc1-c1ccccc1Cl [example 277] | – | – | – | good (A good herbicidal activity is given at values of at least 70) | herbicidal activity against ABUTH (ABUTH; application rate 500 g/ha): very good (a very good herbicidal activity is given at values of at least 85)
15 | CC(C)(C)SC(=O)c1nc(C2CC2)ncc1-c1ccccc1Cl [example 281] | very good (a very good herbicidal activity is given at values of at least 85) | – | – | very good (a very good herbicidal activity is given at values of at least 85) | herbicidal activity against ALOMY (ALOMY; application rate 500 g/ha): very good (a very good herbicidal activity is given at values of at least 85)
16 | CCCOc1ccc(C(F)(F)F)cc1-c1cnc(C2CC2)nc1C(=O)O [example 306] | – | – | – | – | herbicidal activity against ABUTH (ABUTH; application rate 1000 g/ha): very good (a very good herbicidal activity is given at values of at least 85)
17 | COC(=O)c1nc(C2CC2)ncc1-c1ccccc1C(F)F [example 308] | very good (a very good herbicidal activity is given at values of at least 85) | very good (a very good herbicidal activity is given at values of at least 85) | – | very good (a very good herbicidal activity is given at values of at least 85) | herbicidal activity against ALOMY (ALOMY; application rate 500 g/ha): very good (a very good herbicidal activity is given at values of at least 85); herbicidal activity against AVEFA (AVEFA): very good (a very good herbicidal activity is given at values of at least 85)
18 | O=C(O)c1nc(C2CC2)ncc1-c1ccccc1C(F)F [example 309] | very good (a very good herbicidal activity is given at values of at least 85) | very good (a very good herbicidal activity is given at values of at least 85) | – | very good (a very good herbicidal activity is given at values of at least 85) | herbicidal activity against ALOMY (ALOMY; application rate 500 g/ha): very good (a very good herbicidal activity is given at values of at least 85); herbicidal activity against AVEFA (AVEFA): very good (a very good herbicidal activity is given at values of at least 85)
19 | O=C(O)c1nc(C2CC2)ncc1-c1ccccc1SC(F)(F)F [example 310] | – | – | – | – | herbicidal activity against ABUTH (ABUTH; application rate 1000 g/ha): good (A good herbicidal activity is given at values of at least 70)
